Measured values published in ChEMBL document CHEMBL1697781, “Assessment of the health effects of chemicals in humans: II. Construction of an adverse effects database for QSAR modeling” (Curr Drug Discov Technol, 2004).

Assays:
Conditions in all cases: human; call rule not given here
Hepatotoxicity [1] = experiment: FDA HLAED, serum glutamic oxaloacetic transaminase (SGOT) increase
Hepatotoxicity [2] = experiment: FDA HLAED, liver enzyme composite activity
Hepatotoxicity [3] = experiment: FDA HLAED, gamma-glutamyl transferase (GGT) increase
Hepatotoxicity [4] = experiment: FDA HLAED, serum glutamic pyruvic transaminase (SGPT) increase
Hepatotoxicity [5] = experiment: FDA HLAED, alkaline phosphatase increase
Hepatotoxicity [6] = experiment: FDA HLAED, lactate dehydrogenase (LDH) increase
Wherever GGT Increase - Index Value is given: reference of the scale not given here.
Wherever LDH Increase - Index Value is given: reference of the scale not given here.

SMILES | SGOT Increase - Activity Score (Hepatotoxicity [1]) | SGOT Increase - Index Value (Hepatotoxicity [1]) | SGOT Increase - Number of Reports (Hepatotoxicity [1]) | Composite Activity - Active (Hepatotoxicity [2]) | Composite Activity - Marginal (Hepatotoxicity [2]) | Composite Activity - Score (Hepatotoxicity [2]) | GGT Increase - Activity Score (Hepatotoxicity [3]) | GGT Increase - Index Value (Hepatotoxicity [3]) | GGT Increase - Number of Reports (Hepatotoxicity [3]) | SGPT Increase - Activity Score (Hepatotoxicity [4]) | SGPT Increase - Index Value (Hepatotoxicity [4]) | SGPT Increase - Number of Reports (Hepatotoxicity [4]) | Alkaline Phosphatase Increase - Activity Score (Hepatotoxicity [5]) | Alkaline Phosphatase Increase - Index Value (Hepatotoxicity [5]) | Alkaline Phosphatase Increase - Number of Reports (Hepatotoxicity [5]) | LDH Increase - Activity Score (Hepatotoxicity [6]) | LDH Increase - Index Value (Hepatotoxicity [6]) | LDH Increase - Number of Reports (Hepatotoxicity [6]) | further results
C=C1c2c(Cl)ccc(O)c2C(=O)C2=C(O)[C@]3(O)C(=O)C(C(N)=O)=C(O)[C@@H](N(C)C)[C@@H]3[C@@H](O)[C@H]12 [MECLOCYCLINE] | Inactive | 0 | < 4 | 0 | 0 | Inactive | Inactive | 0 | < 4 | Inactive | 0 | < 4 | Inactive | 0 | < 4 | Inactive | 0 | < 4 | –
Cc1ccc(Cl)c(Nc2ccccc2C(=O)O)c1Cl [MECLOFENAMIC ACID] | Inactive | 0 | < 4 | 0 | 0 | Inactive | Inactive | 0 | < 4 | Inactive | 0 | < 4 | Inactive | 0 | < 4 | Inactive | 0 | < 4 | –
OC(c1cc(C(F)(F)F)nc2c(C(F)(F)F)cccc12)C1CCCCN1 (stereo unspecified) [MEFLOQUINE] | Active | 25.3 | >= 4 | 3 | 0 | Active | Active | 18 | >= 4 | Active | 32.5 | >= 4 | Inactive | 7.2 | < 4 | Inactive | 0 | < 4 | –
C[C@@H](O)[C@H]1C(=O)N2C(C(=O)O)=C(S[C@@H]3CN[C@H](C(=O)N(C)C)C3)[C@H](C)[C@H]12 [MEROPENEM] | Active | 50.8 | < 4 | 2 | 1 | Active | Inactive | 0 | < 4 | Active | 50.8 | < 4 | Inactive | 0 | < 4 | Marginally Active | 33.8 | < 4 | –
Nc1ccc(O)c(C(=O)O)c1 [MESALAMINE] | Inactive | 2.2 | >= 4 | 0 | 0 | Inactive | Inactive | 1.5 | >= 4 | Inactive | 1.8 | >= 4 | Inactive | 1.3 | >= 4 | Inactive | 1.1 | >= 4 | –
O=S(=O)([O-])CCS.[Na+] [MESNA] | Inactive | 5 | < 4 | 0 | 0 | Inactive | Inactive | 0 | < 4 | Inactive | 0 | < 4 | Inactive | 0 | < 4 | Inactive | 5 | < 4 | –
CN(C)C(=N)N=C(N)N [METFORMIN] | Inactive | 0 | < 4 | – | – | – | Inactive | 0 | < 4 | Inactive | 0 | < 4 | Inactive | 0 | < 4 | Inactive | 0 | < 4 | Composite Activity - Active (Hepatotoxicity [2]; Liver): 0; Composite Activity - Marginal (Hepatotoxicity [2]; Liver): 0; Composite Activity - Score (Hepatotoxicity [2]; Liver): Inactive
CC(=O)Oc1c(C)cc(OCC(O)CNC(C)C)c(C)c1C (stereo unspecified) [METIPRANOLOL] | Inactive | 0 | < 4 | 0 | 0 | Inactive | Inactive | 0 | < 4 | Inactive | 0 | < 4 | Inactive | 0 | < 4 | Inactive | 0 | < 4 | –
CCN(CC)CCNC(=O)c1cc(Cl)c(N)cc1OC [METOCLOPRAMIDE] | Inactive | 0 | < 4 | 0 | 0 | Inactive | Inactive | 0 | < 4 | Inactive | 0 | < 4 | Inactive | No Shipping Units | < 4 | Inactive | 0 | < 4 | –
COCCc1ccc(OCC(O)CNC(C)C)cc1 (stereo unspecified) [METOPROLOL] | Inactive | 0.5 | >= 4 | 0 | 0 | Inactive | Inactive | 0 | < 4 | Inactive | 0.5 | >= 4 | Inactive | 0.4 | >= 4 | Inactive | 0.3 | < 4 | –
C[C@](N)(Cc1ccc(O)cc1)C(=O)O [METYROSINE] | Inactive | 0 | < 4 | – | – | – | Inactive | 0 | < 4 | Inactive | 0 | < 4 | Inactive | 0 | < 4 | Inactive | 0 | < 4 | Composite Activity - Active (Hepatotoxicity [2]; Liver): 0; Composite Activity - Marginal (Hepatotoxicity [2]; Liver): 0; Composite Activity - Score (Hepatotoxicity [2]; Liver): Inactive
Cc1cccc(C)c1OCC(C)N (stereo unspecified) [MEXILETINE] | Active | 6.7 | >= 4 | – | – | – | Inactive | 0 | < 4 | Marginally Active | 3.6 | >= 4 | Marginally Active | 3.1 | >= 4 | Inactive | 2 | >= 4 | Composite Activity - Active (Hepatotoxicity [2]; Liver): 1; Composite Activity - Marginal (Hepatotoxicity [2]; Liver): 2; Composite Activity - Score (Hepatotoxicity [2]; Liver): Inactive
